Legend:
[1] = tested on: patients with hypercholesterolemia at high CV risk not adequately controlled with atorvastatin (20 mg or 40 mg); assay: Example 2: safety, treatment-emergent adverse events in pooled treatment groups
Method: For the pooled data, three treatment groups are formed by combining treatment arms regardless of the atorvastatin doses as follows:
(2) EZE treatment group: pooling EZE+atorva 20 mg arm and EZE+atorva 40 mg arm;

[2] = tested on: patients with hypercholesterolemia at high CV risk not adequately controlled with atorvastatin (20 mg or 40 mg); assay: Example 2: anti-mAb316P anti-drug antibody (ADA) status; type: in vivo, human
[3] = tested on: patients with hypercholesterolemia at high CV risk not adequately controlled with rosuvastatin (10 mg or 20 mg); assay: Example 3: randomized, double-blind trial, lipid efficacy of mAb316P add-on to rosuvastatin vs EZE add-on or rosuvastatin dose doubling; type: in vivo, human; conditions: for Proportion of Patients Reaching LDL-C goal (%): week 24, LDL-C <70 mg/dL very high risk or <100 mg/dL high risk; for LS Mean Difference, percent change from baseline of Apo B to week 24 / LS Mean Difference, percent change from baseline of Apo-B to week 12 / LS Mean Difference, percent change from baseline of HDL-C at week 24 / LS Mean Difference, percent change from baseline of Lp(a) to week 24 / LS Mean Difference, percent change from baseline of Non-HDL-C to week 12 / LS Mean Difference, percent change from baseline of Total-C to week 12 / LS Mean Difference, percent change from baseline of Total-C to week 24 / LS Mean Difference, percent change from baseline of calculated LDL-C to week 12 / LS Mean Difference, percent change from baseline of calculated LDL-C to week 24 / LS Mean Difference, percent change from baseline of non-HDL-C to week 24 / Odds Ratio, proportion of patients reaching calculated LDL-C < 70 mg/dL (1.81 mmol/L) at Week 24 / Odds Ratio, proportion of very high CV risk patients reaching calculated LDL-C < 70 mg/dL or high CV risk patients reaching calculated LDL-C < 100 mg/dL at Week 24: ITT Population
Method: The present study was a randomized, double-blind, active-comparator, parallel-group study in patients at high CV risk with non-FH or heFH who are not adequately controlled with rosuvastatin (10 mg or 20 mg) with or without other lipid-modifying therapy (LMT) (excluding EZE). The study design is illustrated in FIG. 2. Patients who entered the study were taking either rosuvastatin 10 mg or rosuvastatin 20 mg. The former patients were randomized to 1 of 3 treatment arms (arms 1 to 3); the latter patients were randomized to 1 of 3 treatment arms (arms 4 to 6). The treatment arms are as follows:
(B) a double-blind treatment period of 24 weeks. […] The patient/caregiver administered subsequent injections outside of the clinic according to the dosing schedule. […] The last dose of daily oral study drugs was administered at week 24.
The first injection of study drug was administered at the clinical site, as soon as possible after the patient was randomized into the study. The patient was monitored at the clinical site for at least 30 minutes following the first injection. The patient/caregiver administered subsequent injections outside of the clinic, according to the dosing schedule.
The primary efficacy endpoint was the percent change in calculated LDL-C from baseline to week 24, which is defined as: 100× (calculated LDL-C value at week 24−calculated LDL-C value at baseline)/calculated LDL-C value at baseline. The baseline calculated LDL-C value was the last LDL-C level obtained before the first double-blind study drug injection. The calculated LDL-C at week 24 was the LDL-C level obtained within the week 24 analysis window and during the main efficacy period. The main efficacy period is defined as the time from the first double-blind study drug injection up to 21 days after the last double-blind study drug injection or up to the upper limit of the week 24 analysis window, whichever comes first.
Total-C, HDL-C, TG, ApoB, ApoA-1, and Lp(a) were directly measured by a central laboratory. LDL-C was calculated using the Friedewald formula. […] Non-HDL-C was calculated by subtracting HDL-C from the total-C. Ratio ApoB/ApoA-1 was calculated.
For clarification, the ITT analysis is defined for patients in the ITT population and includes all endpoint assessments in an analysis window, regardless of study treatment dosing status (i.e. includes post-treatment assessments). The on-treatment analysis is defined for patients in the mITT population and includes all endpoint assessments from the first double-blind study drug (capsule or injection, whichever comes first) up to 21 days after the last double-blind study drug injection or 3 days after the last capsule intake, whichever comes first (i.e. includes assessments in the efficacy treatment period).

[4] = Safety Population, pooled treatment groups
[5] = of the five ADA positive patients
[6] = Comparison 1: mAb316P + rosuvastatin 10 mg arm vs. rosuvastatin 20 mg arm
[7] = Comparison 2: mAb316P + rosuvastatin 10 mg arm vs. EZE + rosuvastatin 10 mg arm

mAb316P: human anti-PCSK9 antibody; heavy chain SEQ ID NO:5, light chain SEQ ID NO:9
General Allergic TEAEs (SMQ Hypersensitivity) [1, 4]: 2 (1.9%) patients (%) | SOC Injury, poisoning and procedural complications [1, 4]: 15 (14.4%) patients (%) | SOC Musculoskeletal and connective tissue disorders [1, 4]: 24 (23.1%) patients (%) | SOC Neoplasms benign, malignant and unspecified (incl cysts and polyps) [1, 4]: 3 (2.9%) patients (%) | SOC Nervous system disorders [1, 4]: 10 (9.6%) patients (%) | TEAEs [1, 4]: 68 (65.4%) patients (%) | Treatment-emergent SAEs [1, 4]: 4 (3.8%) patients (%) | Treatment-emergent injection site reactions (ISRs) [1, 4]: 3 (2.9%) patients (%) | Treatment-emergent neurologic disorders [1, 4]: 3 (2.9%) patients (%) | discontinued study treatment early due to a treatment emergent adverse event (TEAE) [1, 4]: 7 (6.7%) patients (%) | Treatment-emergent cardiovascular events adjudicated positively ([1]; Safety Population, pooled treatment groups, ischemia driven coronary revascularization procedure): 2 (1.9%) patients (%) | TEAE Back pain ([1]; pooled mAb316P group): 7 patients | TEAE Headache ([1]; pooled mAb316P group): 4 patients | TEAE Hypertension ([1]; pooled mAb316P group): 5 patients | TEAE Muscle spasms ([1]; pooled mAb316P group): 4 patients | TEAE influenza ([1]; pooled mAb316P group): 3 patients | TEAE nasopharyngitis ([1]; pooled mAb316P group): 5 patients | TEAE upper respiratory tract infection ([1]; pooled mAb316P group): 5 patients | TEAE urinary tract infection ([1]; pooled mAb316P group): 3 patients | Treatment-emergent ADA positive responses ([2]; 5 of 99 patients in the pooled mAb316P add-on group): 5.1% | overall immunogenicity ([2]; in vivo): immunogenicity was low | positive mAb316P-neutralizing antibody status ([2]; of patients with positive ADA status): One and one | treatment-emergent ADA: persistent responses [2, 5]: three | treatment-emergent ADA: transient response [2, 5]: one | Proportion of Patients Reaching LDL-C goal (%) ([3]; Baseline Rosuvastatin 10 mg): 84.9% | Proportion of Patients Reaching LDL-C goal (%) ([3]; Baseline Rosuvastatin 20 mg): 66.7% | LS Mean Difference, percent change from baseline of Apo B to week 24 [3, 6]: −29.2% | LS Mean Difference, percent change from baseline of Apo-B to week 12 [3, 6]: −28.1% | LS Mean Difference, percent change from baseline of HDL-C at week 24 [3, 6]: 7.4% | LS Mean Difference, percent change from baseline of Lp(a) to week 24 [3, 6]: −23.9% | LS Mean Difference, percent change from baseline of Non-HDL-C to week 12 [3, 6]: −29.5% | LS Mean Difference, percent change from baseline of Total-C to week 12 [3, 6]: −20.1% | LS Mean Difference, percent change from baseline of Total-C to week 24 [3, 6]: −20.6% | LS Mean Difference, percent change from baseline of calculated LDL-C to week 12 [3, 6]: −32.5% | LS Mean Difference, percent change from baseline of calculated LDL-C to week 24 [3, 6]: −34.2% | LS Mean Difference, percent change from baseline of non-HDL-C to week 24 [3, 6]: −31.4% | Odds Ratio, proportion of patients reaching calculated LDL-C < 70 mg/dL (1.81 mmol/L) at Week 24 [3, 6]: 18.6 | Odds Ratio, proportion of very high CV risk patients reaching calculated LDL-C < 70 mg/dL or high CV risk patients reaching calculated LDL-C < 100 mg/dL at Week 24 [3, 6]: 10.2 | LS Mean Difference, percent change from baseline of Apo B to week 24 [3, 7]: −26.8% | LS Mean Difference, percent change from baseline of Apo-B to week 12 [3, 7]: −24.0% | LS Mean Difference, percent change from baseline of HDL-C at week 24 [3, 7]: 5.1% | LS Mean Difference, percent change from baseline of Lp(a) to week 24 [3, 7]: −23.6% | LS Mean Difference, percent change from baseline of Non-HDL-C to week 12 [3, 7]: −24.9% | LS Mean Difference, percent change from baseline of Total-C to week 12 [3, 7]: −17.2% | LS Mean Difference, percent change from baseline of Total-C to week 24 [3, 7]: −20.3% | LS Mean Difference, percent change from baseline of calculated LDL-C to week 12 [3, 7]: −32.2% | LS Mean Difference, percent change from baseline of calculated LDL-C to week 24 [3, 7]: −36.1% | LS Mean Difference, percent change from baseline of non-HDL-C to week 24 [3, 7]: −29.3% | Odds Ratio, proportion of patients reaching calculated LDL-C < 70 mg/dL (1.81 mmol/L) at Week 24 [3, 7]: 11.6 | Odds Ratio, proportion of very high CV risk patients reaching calculated LDL-C < 70 mg/dL or high CV risk patients reaching calculated LDL-C < 100 mg/dL at Week 24 [3, 7]: 7.8
